These are literature values, as cited in patent publication US20080102106A1, “Wound Healing Composition Comprising Substances From Diptera Larvae” (ALPHA-BIOCARE GMBH, priority 2005, published 2008).

For the data set the following is noted: many cases of use in humans, dermatological studies.

Molecules are shown by their SMILES.

For `NC(N)=O` [urea], the wound healing effect entry is given as “do not have any wound healing effect”.

On to `NC(=O)NC1NC(=O)NC1=O` (stereo not drawn) [allantoin], for which the wound healing effect result was “do not have any wound healing effect”.

For `N` [ammonium], the wound healing effect entry was “do not have any wound healing effect”.
